# Measured values reported in patent publication US6794386B2, “β-amino acid compounds as integrin antagonists” (Bayer Aktiengesellschaft, priority 2000, dated 2004).
# Molecular target: T1, VLA-4 (Homo sapiens, UniProt P05556+P13612)
# T1 construct: host or cells: Jurkat clone E6-1
# Assay: Adhesion of Jurkat cells to immobilized VCAM-1 (domains 1-3)
# Format: cell-based
# Conditions: adhesion of CFSE-labeled Jurkat cells to recombinant human VCAM-1 (domains 1-3) coated plates; compounds as yielded by solid phase synthesis, purity about 40-90%; read-out: IC50
# How it was run: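 CFSE-labelled Jurkat E6-1 cells in Tris buffer pH 7.4 with 2 mM MnCl2 were added to wells coated with insect-cell-expressed human VCAM-1 domains 1-3 (0.5 μg/ml coating solution); labelled cells were incubated for 30 min at 37 °C with the VLA-4 inhibitor.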
# T1 sequence (P13612 34-1032): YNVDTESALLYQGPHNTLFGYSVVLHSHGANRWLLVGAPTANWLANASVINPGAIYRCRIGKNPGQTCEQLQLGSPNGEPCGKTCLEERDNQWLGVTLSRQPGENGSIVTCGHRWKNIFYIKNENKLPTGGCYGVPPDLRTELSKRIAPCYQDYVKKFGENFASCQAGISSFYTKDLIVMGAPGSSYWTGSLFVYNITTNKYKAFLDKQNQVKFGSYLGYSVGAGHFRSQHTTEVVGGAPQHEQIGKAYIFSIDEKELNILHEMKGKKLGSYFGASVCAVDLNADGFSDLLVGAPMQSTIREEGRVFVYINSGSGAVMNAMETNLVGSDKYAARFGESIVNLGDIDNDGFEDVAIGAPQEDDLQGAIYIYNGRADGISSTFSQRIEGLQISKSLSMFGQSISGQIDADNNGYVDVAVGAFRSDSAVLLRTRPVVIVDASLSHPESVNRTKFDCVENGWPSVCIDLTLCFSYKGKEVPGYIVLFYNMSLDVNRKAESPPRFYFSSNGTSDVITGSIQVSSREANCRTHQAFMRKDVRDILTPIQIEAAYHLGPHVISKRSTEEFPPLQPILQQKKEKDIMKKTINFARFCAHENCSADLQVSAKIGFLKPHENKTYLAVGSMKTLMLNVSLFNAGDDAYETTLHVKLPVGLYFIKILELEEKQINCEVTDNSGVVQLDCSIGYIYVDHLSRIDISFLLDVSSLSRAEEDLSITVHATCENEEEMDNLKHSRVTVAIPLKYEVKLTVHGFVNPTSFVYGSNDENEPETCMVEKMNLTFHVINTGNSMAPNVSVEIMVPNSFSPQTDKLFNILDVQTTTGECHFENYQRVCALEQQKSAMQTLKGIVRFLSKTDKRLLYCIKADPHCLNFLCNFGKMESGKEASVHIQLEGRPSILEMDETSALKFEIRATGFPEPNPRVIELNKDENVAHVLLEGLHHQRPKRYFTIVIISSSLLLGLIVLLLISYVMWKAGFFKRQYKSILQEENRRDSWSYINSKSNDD
# T1 sequence (P05556 21-798): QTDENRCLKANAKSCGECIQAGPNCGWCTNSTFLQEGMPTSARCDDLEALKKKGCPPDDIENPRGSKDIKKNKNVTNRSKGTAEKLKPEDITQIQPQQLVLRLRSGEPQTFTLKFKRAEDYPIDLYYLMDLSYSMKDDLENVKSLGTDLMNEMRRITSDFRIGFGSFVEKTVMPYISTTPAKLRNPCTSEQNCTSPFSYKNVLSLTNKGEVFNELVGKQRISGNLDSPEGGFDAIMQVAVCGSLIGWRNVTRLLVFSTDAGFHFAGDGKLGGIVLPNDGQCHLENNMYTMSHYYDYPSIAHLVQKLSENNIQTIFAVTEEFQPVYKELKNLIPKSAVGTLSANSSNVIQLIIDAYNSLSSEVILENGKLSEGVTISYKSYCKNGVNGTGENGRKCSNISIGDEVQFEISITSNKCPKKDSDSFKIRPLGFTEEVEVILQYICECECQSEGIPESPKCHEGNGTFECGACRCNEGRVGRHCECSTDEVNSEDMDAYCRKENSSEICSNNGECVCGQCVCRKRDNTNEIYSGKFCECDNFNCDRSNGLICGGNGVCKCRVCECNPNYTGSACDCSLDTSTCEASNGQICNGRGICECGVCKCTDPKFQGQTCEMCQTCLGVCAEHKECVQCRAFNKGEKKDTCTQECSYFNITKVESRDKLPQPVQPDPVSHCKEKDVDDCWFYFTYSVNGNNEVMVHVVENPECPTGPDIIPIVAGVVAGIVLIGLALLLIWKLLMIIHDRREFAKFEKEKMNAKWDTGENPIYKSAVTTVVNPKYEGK
row,SMILES,IC50
1,Cc1ccc(S(=O)(=O)N2CCCC(C(=O)N[C@@H](Cc3ccc(NC(=O)N4CCN(c5ccccc5)CC4)cc3)C(=O)O)C2)cc1 (stereo partly drawn) [Example 4.46],≤ 500 nM
2,O=C(N[C@@H](Cc1ccc(NC(=O)N2CCN(c3ccccc3)CC2)cc1)C(=O)O)C1CCCN(S(=O)(=O)Cc2ccccc2)C1 (stereo partly drawn) [Example 4.47],500 to 2000 nM
3,COc1ccc(S(=O)(=O)N2CCCC(C(=O)NC(Cc3ccc(NC(=O)N4CCc5ccccc5C4)cc3)C(=O)O)C2)cc1OC (stereo not drawn) [Example 4.48],≤ 500 nM
4,O=C(N[C@@H](Cc1ccc(NC(=O)N2CCOCC2)cc1)C(=O)O)C1CCCN(C(=O)c2ccccc2F)C1 (stereo partly drawn) [Example 4.49],≤ 500 nM
5,O=C(N[C@@H](Cc1ccc(NC(=O)N2CCN(c3ccccc3)CC2)cc1)C(=O)O)C1CCCN(C(=O)c2ccccc2F)C1 (stereo partly drawn) [Example 4.50],≤ 500 nM
6,CN1CCN(C(=O)Nc2ccc(C[C@H](NC(=O)C3CCCN(C(=O)c4ccccc4F)C3)C(=O)O)cc2)CC1 (stereo partly drawn) [Example 4.51],≤ 500 nM
7,CC(C)NC(=O)N1CCCC(C(=O)N[C@@H](Cc2ccc(NC(=O)N3CCOCC3)cc2)C(=O)O)C1 (stereo partly drawn) [Example 4.52],≤ 500 nM
8,O=C(N[C@@H](Cc1ccc(NC(=O)N2CCc3ccccc3C2)cc1)C(=O)O)C1CCCN(C(=O)C2CCCCC2)C1 (stereo partly drawn) [Example 4.53],500 to 2000 nM
9,COc1ccccc1NC(=O)N1CCCC(C(=O)N[C@@H](Cc2ccc(NC(=O)N3CCCCC3)cc2)C(=O)O)C1 (stereo partly drawn) [Example 4.54],500 to 2000 nM
10,COc1ccccc1NC(=O)N1CCCC(C(=O)N[C@H](Cc2ccc(NC(=O)N3CCN(c4ccccc4)CC3)cc2)C(=O)O)C1 (stereo partly drawn) [Example 4.55],500 to 2000 nM
11,O=C(NCC(c1ccccc1)c1ccccc1)Nc1ccc(C[C@H](NC(=O)C2CCCN(C(=O)c3ccccc3F)C2)C(=O)O)cc1 (stereo partly drawn) [Example 4.56],500 to 2000 nM
12,CN1CCN(C(=O)Nc2ccc(C[C@H](NC(=O)C3CCCN(C(=O)Nc4ccccc4F)C3)C(=O)O)cc2)CC1 (stereo partly drawn) [Example 4.57],500 to 2000 nM
13,O=C(N[C@@H](Cc1ccc(NC(=O)N2CCOCC2)cc1)C(=O)O)C1CCCN(C(=O)NC2CCCCC2)C1 (stereo partly drawn) [Example 4.58],500 to 2000 nM
14,O=C(N[C@@H](Cc1ccc(NC(=O)N2CCOCC2)cc1)C(=O)O)C1CCCN(C(=O)Nc2ccc(-c3ccccc3)cc2)C1 (stereo partly drawn) [Example 4.59],500 to 2000 nM
15,O=C(N[C@@H](Cc1ccc(NC(=O)N2CCc3ccccc3C2)cc1)C(=O)O)C1CCCN(C(=O)Nc2ccccc2)C1 (stereo partly drawn) [Example 4.60],500 to 2000 nM
16,O=C(N[C@@H](Cc1ccc(NC(=O)N2CCOCC2)cc1)C(=O)O)C1CCCN(C(=O)Nc2ccccc2F)C1 (stereo partly drawn) [Example 4.61],500 to 2000 nM
17,CN1CCN(C(=O)Nc2ccc(C[C@H](NC(=O)C3CCCN(C(=O)NCc4ccccc4)C3)C(=O)O)cc2)CC1 (stereo partly drawn) [Example 4.62],500 to 2000 nM
18,COc1ccccc1NC(=O)N1CCCC(C(=O)N[C@@H](Cc2ccc(NC(=O)N3CCOCC3)cc2)C(=O)O)C1 (stereo partly drawn) [Example 4.63],500 to 2000 nM
19,COc1ccccc1-c1ccc(C[C@H](NC(=O)C2CCCN(c3ncnc(NC4CCN(Cc5ccccc5)CC4)c3F)C2)C(=O)O)cc1 (stereo partly drawn) [Example 5.2],2000 to 10000 nM
20,COc1ccccc1-c1ccc(C[C@H](NC(=O)C2CCCN(c3ncnc(NCCc4c[nH]cn4)c3F)C2)C(=O)O)cc1 (stereo partly drawn) [Example 5.3],2000 to 10000 nM

row,SMILES,IC50
1,COc1ccccc1-c1ccc(C[C@H](NC(=O)C2CCCN(c3ncnc(N)c3F)C2)C(=O)O)cc1 (stereo partly drawn) [Example 5.4],500 to 2000 nM
2,CN(C)CCNc1ncnc(N2CCCC(C(=O)N[C@H](Cc3ccc(NC(=O)N4CCN(C)CC4)cc3)C(=O)O)C2)c1F (stereo partly drawn) [Example 5.5],2000 to 10000 nM
3,O=C(N[C@@H](Cc1ccc(NC(=O)N2CCN(c3ccccc3)CC2)cc1)C(=O)O)C1CCCN(c2ncnc(NCCc3c[nH]cn3)c2F)C1 (stereo partly drawn) [Example 5.6],2000 to 10000 nM
4,COc1ccc(CCNc2ncnc(N3CCCC(C(=O)N[C@@H](Cc4ccc(NC(=O)N5CCN(C)CC5)cc4)C(=O)O)C3)c2F)cc1 (stereo partly drawn) [Example 5.7],500 to 2000 nM
5,O=C(N[C@@H](Cc1ccc(NC(=O)N2CCOCC2)cc1)C(=O)O)C1CCCN(c2ncnc(NCc3ccccc3)c2F)C1 (stereo partly drawn) [Example 5.8],500 to 2000 nM
6,O=C(N[C@@H](Cc1ccc(NC(=O)N2CCOCC2)cc1)C(=O)O)C1CCCN(c2ncnc(N3CCCC3)c2F)C1 (stereo partly drawn) [Example 5.9],2000 to 10000 nM
7,O=C(N[C@@H](Cc1ccc(NC(=O)N2CCN(c3ccccc3)CC2)cc1)C(=O)O)C1CCCN(c2ncnc(N3CCCC3)c2F)C1 (stereo partly drawn) [Example 5.10],2000 to 10000 nM
8,CN1CCN(C(=O)Nc2ccc(C[C@H](NC(=O)C3CCCN(c4ncnc(NCc5ccccc5)c4F)C3)C(=O)O)cc2)CC1 (stereo partly drawn) [Example 5.11],500 to 2000 nM
9,O=C(N[C@@H](Cc1ccc(NC(=O)N2CCOCC2)cc1)C(=O)O)C1CCCN(c2ncnc(N3CCN(c4ccccc4)CC3)c2F)C1 (stereo partly drawn) [Example 5.12],2000 to 10000 nM
10,CN1CCN(C(=O)Nc2ccc(C[C@H](NC(=O)C3CCCN(c4ncnc(N5CCCC5)c4F)C3)C(=O)O)cc2)CC1 (stereo partly drawn) [Example 5.13],2000 to 10000 nM
11,CN1CCN(C(=O)Nc2ccc(C[C@H](NC(=O)C3CCCN(c4ncnc(N5CCN(c6ccccc6)CC5)c4F)C3)C(=O)O)cc2)CC1 (stereo partly drawn) [Example 5.14],2000 to 10000 nM
12,CN(C)CCCNc1ncnc(N2CCCC(C(=O)N[C@@H](Cc3ccc(NC(=O)N4CCN(c5ccccc5)CC4)cc3)C(=O)O)C2)c1F (stereo partly drawn) [Example 5.15],2000 to 10000 nM
13,COCCNc1ncnc(N2CCCC(C(=O)N[C@@H](Cc3ccc(NC(=O)N4CCc5ccccc5C4)cc3)C(=O)O)C2)c1F (stereo partly drawn) [Example 5.16],2000 to 10000 nM
14,O=C(N[C@@H](Cc1ccc(NC(=O)N2CCN(c3ccccc3)CC2)cc1)C(=O)O)C1CCCN(c2ncnc(N3CCSCC3)c2F)C1 (stereo partly drawn) [Example 5.17],500 to 2000 nM
15,CN1CCN(C(=O)Nc2ccc(C[C@H](NC(=O)C3CCCN(c4ncnc(NCC(c5ccccc5)c5ccccc5)c4F)C3)C(=O)O)cc2)CC1 (stereo partly drawn) [Example 5.18],500 to 2000 nM
16,O=C(N[C@@H](Cc1ccc(NC(=O)N2CCN(c3ccccc3)CC2)cc1)C(=O)O)C1CCCN(c2ncnc(NCC(c3ccccc3)c3ccccc3)c2F)C1 (stereo partly drawn) [Example 5.19],500 to 2000 nM
17,CN1CCN(C(=O)Nc2ccc(C[C@H](NC(=O)C3CCCN(c4ncnc(N5CCCCCC5)c4F)C3)C(=O)O)cc2)CC1 (stereo partly drawn) [Example 5.20],500 to 2000 nM
18,O=C(N[C@@H](Cc1ccc(NC(=O)N2CCOCC2)cc1)C(=O)O)C1CCCN(c2ncnc(N3CCCCCC3)c2F)C1 (stereo partly drawn) [Example 5.21],500 to 2000 nM
19,O=C(N[C@@H](Cc1ccc(NC(=O)N2CCOCC2)cc1)C(=O)O)C1CCCN(c2ncnc(NC3CCN(Cc4ccccc4)CC3)c2F)C1 (stereo partly drawn) [Example 5.22],2000 to 10000 nM
20,O=C(N[C@@H](Cc1ccc(NC(=O)N2CCN(c3ccccc3)CC2)cc1)C(=O)O)C1CCCN(c2ncnc(NC3CCN(Cc4ccccc4)CC3)c2F)C1 (stereo partly drawn) [Example 5.23],500 to 2000 nM

row,SMILES,IC50
1,CN1CCN(C(=O)Nc2ccc(C[C@H](NC(=O)C3CCCN(c4ncnc(NC5CCCC5)c4F)C3)C(=O)O)cc2)CC1 (stereo partly drawn) [Example 5.24],2000 to 10000 nM
2,CN1CCN(C(=O)Nc2ccc(C[C@H](NC(=O)C3CCCN(c4ncnc(NCCc5ccccc5)c4F)C3)C(=O)O)cc2)CC1 (stereo partly drawn) [Example 5.25],500 to 2000 nM
3,O=C(N[C@@H](Cc1ccc(NC(=O)N2CCN(c3ccccc3)CC2)cc1)C(=O)O)C1CCCN(c2ncnc(NCCc3ccccc3)c2F)C1 (stereo partly drawn) [Example 5.26],2000 to 10000 nM
4,CN1CCN(C(=O)Nc2ccc(C[C@H](NC(=O)C3CCCN(c4ncnc(N5CCc6ccccc6C5)c4F)C3)C(=O)O)cc2)CC1 (stereo partly drawn) [Example 5.27],2000 to 10000 nM
5,O=C(N[C@@H](Cc1ccc(NC(=O)N2CCOCC2)cc1)C(=O)O)C1CCCN(c2ncnc(NCc3cccnc3)c2F)C1 (stereo partly drawn) [Example 5.28],500 to 2000 nM
6,CN1CCN(C(=O)Nc2ccc(C[C@H](NC(=O)C3CCCN(c4ncnc(NCc5cccnc5)c4F)C3)C(=O)O)cc2)CC1 (stereo partly drawn) [Example 5.29],2000 to 10000 nM
7,O=C(N[C@@H](Cc1ccc(NC(=O)N2CCN(c3ccccc3)CC2)cc1)C(=O)O)C1CCCN(c2ncnc(NCc3cccnc3)c2F)C1 (stereo partly drawn) [Example 5.30],500 to 2000 nM
8,CN1CCN(C(=O)Nc2ccc(C[C@H](NC(=O)C3CCCN(c4ncnc(NCc5ccncc5)c4F)C3)C(=O)O)cc2)CC1 (stereo partly drawn) [Example 5.31],500 to 2000 nM
9,CN1CCN(C(=O)Nc2ccc(C[C@H](NC(=O)C3CCCN(c4ncnc(NCC5CCNCC5)c4F)C3)C(=O)O)cc2)CC1 (stereo partly drawn) [Example 5.32],500 to 2000 nM
10,CN1CCN(C(=O)Nc2ccc(C[C@H](NC(=O)C3CCCN(c4ncnc(NCC5CCCCC5)c4F)C3)C(=O)O)cc2)CC1 (stereo partly drawn) [Example 5.33],2000 to 10000 nM
11,CN1CCN(C(=O)Nc2ccc(C[C@H](NC(=O)C3CCCN(c4ncnc(N)c4F)C3)C(=O)O)cc2)CC1 (stereo partly drawn) [Example 5.34],≤ 500 nM
12,O=C(N[C@@H](Cc1ccc(NC(=O)N2CCOCC2)cc1)C(=O)O)C1CCCN(c2ncnc(NCC3CCCCC3)c2F)C1 (stereo partly drawn) [Example 5.35],≤ 500 nM
13,CN(c1ncnc(N2CCCC(C(=O)N[C@@H](Cc3ccc(NC(=O)N4CCOCC4)cc3)C(=O)O)C2)c1F)C1CCCCC1 (stereo partly drawn) [Example 5.36],500 to 2000 nM
14,O=C(N[C@@H](Cc1ccc(NC(=O)N2CCN(c3ccccc3)CC2)cc1)C(=O)O)C1CCCN(c2ncnc(NCc3ccncc3)c2F)C1 (stereo partly drawn) [Example 5.37],500 to 2000 nM
15,CN(c1ncnc(N2CCCC(C(=O)N[C@@H](Cc3ccc(NC(=O)N4CCc5ccccc5C4)cc3)C(=O)O)C2)c1F)C1CCCCC1 (stereo partly drawn) [Example 5.38],500 to 2000 nM
16,O=C(N[C@@H](Cc1ccc(NC(=O)N2CCN(c3ccccc3)CC2)cc1)C(=O)O)C1CCCN(c2ncnc(NCCc3ccccn3)c2F)C1 (stereo partly drawn) [Example 5.39],500 to 2000 nM
17,CN1CCN(c2ncnc(N3CCCC(C(=O)N[C@@H](Cc4ccc(NC(=O)N5CCc6ccccc6C5)cc4)C(=O)O)C3)c2F)CC1 (stereo partly drawn) [Example 5.40],500 to 2000 nM
18,CC1CCCCN1c1ncnc(N2CCCC(C(=O)N[C@@H](Cc3ccc(NC(=O)N4CCc5ccccc5C4)cc3)C(=O)O)C2)c1F (stereo partly drawn) [Example 5.41],500 to 2000 nM
19,Nc1ncnc(N2CCCC(C(=O)N[C@@H](Cc3ccc(NC(=O)N4CCN(c5ccccc5)CC4)cc3)C(=O)O)C2)c1F (stereo partly drawn) [Example 5.42],≤ 500 nM
20,CN(c1ncnc(N2CCCC(C(=O)N[C@@H](Cc3ccc(NC(=O)N4CCN(c5ccccc5)CC4)cc3)C(=O)O)C2)c1F)C1CCCCC1 (stereo partly drawn) [Example 5.43],500 to 2000 nM
